These molecules were tested on Microsporum canis (assay: Antifungal activity against Microsporum canis assessed as lowest dose required to total inhibition of fungal growth).
Format: functional

Structure (SMILES) | GI [µg/mL]
COc1ccc(OCCC(Cn2ccnc2)c2ccc(Cl)cc2Cl)cc1.O=[N+]([O-])O (stereo unspecified) | 10
Clc1ccc(C(COc2ccc(Br)cc2)Cn2ccnc2)c(Cl)c1.O=[N+]([O-])O (stereo unspecified) | <1
Clc1ccc(C(COc2ccc(Cl)cc2Cl)Cn2ccnc2)cc1.O=[N+]([O-])O (stereo unspecified) | 10
Fc1ccc(OCCCC(Cn2ccnc2)c2ccc(Cl)cc2Cl)cc1.O=C(O)C(=O)O (stereo unspecified) | <1

What follows are molecules tested on Trichophyton mentagrophytes (assay: Antifungal activity against Trichophyton mentagrophytes assessed as lowest dose required to total inhibition of fungal growth).
Format: functional

Structure (SMILES) | GI [µg/mL]
COc1ccc(OCCC(Cn2ccnc2)c2ccc(Cl)cc2Cl)cc1.O=[N+]([O-])O (stereo unspecified) | <1
Clc1ccc(C(COc2ccc(Br)cc2)Cn2ccnc2)c(Cl)c1.O=[N+]([O-])O (stereo unspecified) | <1
Clc1ccc(C(COc2ccc(Cl)cc2Cl)Cn2ccnc2)cc1.O=[N+]([O-])O (stereo unspecified) | <1
Fc1ccc(OCCCC(Cn2ccnc2)c2ccc(Cl)cc2Cl)cc1.O=C(O)C(=O)O (stereo unspecified) | <1

What follows are molecules tested on Trichophyton rubrum (assay: Antifungal activity against Trichophyton rubrum assessed as lowest dose required to total inhibition of fungal growth).
Format: functional

Structure (SMILES) | GI [µg/mL]
COc1ccc(OCCC(Cn2ccnc2)c2ccc(Cl)cc2Cl)cc1.O=[N+]([O-])O (stereo unspecified) | <1
Clc1ccc(C(COc2ccc(Br)cc2)Cn2ccnc2)c(Cl)c1.O=[N+]([O-])O (stereo unspecified) | <1
Clc1ccc(C(COc2ccc(Cl)cc2Cl)Cn2ccnc2)cc1.O=[N+]([O-])O (stereo unspecified) | <1
Fc1ccc(OCCCC(Cn2ccnc2)c2ccc(Cl)cc2Cl)cc1.O=C(O)C(=O)O (stereo unspecified) | <1

What follows are molecules tested on Cryptococcus neoformans (assay: Antifungal activity against Cryptococcus neoformans assessed as lowest dose required to total inhibition of fungal growth).
Format: functional

Structure (SMILES) | GI [µg/mL]
COc1ccc(OCCC(Cn2ccnc2)c2ccc(Cl)cc2Cl)cc1.O=[N+]([O-])O (stereo unspecified) | <1
Clc1ccc(C(COc2ccc(Br)cc2)Cn2ccnc2)c(Cl)c1.O=[N+]([O-])O (stereo unspecified) | <1
Clc1ccc(C(COc2ccc(Cl)cc2Cl)Cn2ccnc2)cc1.O=[N+]([O-])O (stereo unspecified) | <1
Fc1ccc(OCCCC(Cn2ccnc2)c2ccc(Cl)cc2Cl)cc1.O=C(O)C(=O)O (stereo unspecified) | <1

The molecules below were run on Candida tropicalis (assay: Antifungal activity against Candida tropicalis assessed as lowest dose required to total inhibition of fungal growth).
Format: functional

Structure (SMILES) | GI [µg/mL]
COc1ccc(OCCC(Cn2ccnc2)c2ccc(Cl)cc2Cl)cc1.O=[N+]([O-])O (stereo unspecified) | >100
Clc1ccc(C(COc2ccc(Br)cc2)Cn2ccnc2)c(Cl)c1.O=[N+]([O-])O (stereo unspecified) | >100
Clc1ccc(C(COc2ccc(Cl)cc2Cl)Cn2ccnc2)cc1.O=[N+]([O-])O (stereo unspecified) | >100
Fc1ccc(OCCCC(Cn2ccnc2)c2ccc(Cl)cc2Cl)cc1.O=C(O)C(=O)O (stereo unspecified) | >100

These molecules were tested on Candida albicans (assay: Antifungal activity against Candida albicans assessed as lowest dose required to total inhibition of fungal growth).
Format: functional

Structure (SMILES) | GI [µg/mL]
COc1ccc(OCCC(Cn2ccnc2)c2ccc(Cl)cc2Cl)cc1.O=[N+]([O-])O (stereo unspecified) | 100
Clc1ccc(C(COc2ccc(Br)cc2)Cn2ccnc2)c(Cl)c1.O=[N+]([O-])O (stereo unspecified) | 100
Clc1ccc(C(COc2ccc(Cl)cc2Cl)Cn2ccnc2)cc1.O=[N+]([O-])O (stereo unspecified) | 10
Fc1ccc(OCCCC(Cn2ccnc2)c2ccc(Cl)cc2Cl)cc1.O=C(O)C(=O)O (stereo unspecified) | >100

These molecules were tested on Mucor (assay: Antifungal activity against Mucor species assessed as lowest dose required to total inhibition of fungal growth).
Format: functional

Structure (SMILES) | GI [µg/mL]
COc1ccc(OCCC(Cn2ccnc2)c2ccc(Cl)cc2Cl)cc1.O=[N+]([O-])O (stereo unspecified) | 100
Clc1ccc(C(COc2ccc(Br)cc2)Cn2ccnc2)c(Cl)c1.O=[N+]([O-])O (stereo unspecified) | 100
Clc1ccc(C(COc2ccc(Cl)cc2Cl)Cn2ccnc2)cc1.O=[N+]([O-])O (stereo unspecified) | >100
Fc1ccc(OCCCC(Cn2ccnc2)c2ccc(Cl)cc2Cl)cc1.O=C(O)C(=O)O (stereo unspecified) | >100

What follows are molecules tested on Aspergillus fumigatus (assay: Antifungal activity against Aspergillus fumigatus assessed as lowest dose required to total inhibition of fungal growth).
Format: functional

Structure (SMILES) | GI [µg/mL]
COc1ccc(OCCC(Cn2ccnc2)c2ccc(Cl)cc2Cl)cc1.O=[N+]([O-])O (stereo unspecified) | 100
Clc1ccc(C(COc2ccc(Br)cc2)Cn2ccnc2)c(Cl)c1.O=[N+]([O-])O (stereo unspecified) | 100
Clc1ccc(C(COc2ccc(Cl)cc2Cl)Cn2ccnc2)cc1.O=[N+]([O-])O (stereo unspecified) | 100
Fc1ccc(OCCCC(Cn2ccnc2)c2ccc(Cl)cc2Cl)cc1.O=C(O)C(=O)O (stereo unspecified) | 100

What follows are molecules tested on Sporothrix schenckii (assay: Antifungal activity against Sporothrix schenckii assessed as lowest dose required to total inhibition of fungal growth).
Format: functional

Structure (SMILES) | GI [µg/mL]
COc1ccc(OCCC(Cn2ccnc2)c2ccc(Cl)cc2Cl)cc1.O=[N+]([O-])O (stereo unspecified) | 10
Clc1ccc(C(COc2ccc(Br)cc2)Cn2ccnc2)c(Cl)c1.O=[N+]([O-])O (stereo unspecified) | 100
Clc1ccc(C(COc2ccc(Cl)cc2Cl)Cn2ccnc2)cc1.O=[N+]([O-])O (stereo unspecified) | 10
Fc1ccc(OCCCC(Cn2ccnc2)c2ccc(Cl)cc2Cl)cc1.O=C(O)C(=O)O (stereo unspecified) | <1

The molecules below were run on Saprolegnia (assay: Antifungal activity against Saprolegnia species assessed as lowest dose required to total inhibition of fungal growth).
Format: functional

Structure (SMILES) | GI [µg/mL]
COc1ccc(OCCC(Cn2ccnc2)c2ccc(Cl)cc2Cl)cc1.O=[N+]([O-])O (stereo unspecified) | <1
Clc1ccc(C(COc2ccc(Br)cc2)Cn2ccnc2)c(Cl)c1.O=[N+]([O-])O (stereo unspecified) | 100
Clc1ccc(C(COc2ccc(Cl)cc2Cl)Cn2ccnc2)cc1.O=[N+]([O-])O (stereo unspecified) | >100
Fc1ccc(OCCCC(Cn2ccnc2)c2ccc(Cl)cc2Cl)cc1.O=C(O)C(=O)O (stereo unspecified) | 10

What follows are molecules tested on Phialophora verrucosa (assay: Antifungal activity against Phialophora verrucosa assessed as lowest dose required to total inhibition of fungal growth).
Format: functional

Structure (SMILES) | GI [µg/mL]
COc1ccc(OCCC(Cn2ccnc2)c2ccc(Cl)cc2Cl)cc1.O=[N+]([O-])O (stereo unspecified) | 10
Clc1ccc(C(COc2ccc(Br)cc2)Cn2ccnc2)c(Cl)c1.O=[N+]([O-])O (stereo unspecified) | 100
Clc1ccc(C(COc2ccc(Cl)cc2Cl)Cn2ccnc2)cc1.O=[N+]([O-])O (stereo unspecified) | 100
Fc1ccc(OCCCC(Cn2ccnc2)c2ccc(Cl)cc2Cl)cc1.O=C(O)C(=O)O (stereo unspecified) | 100

The molecules below were run on Erysipelothrix rhusiopathiae (assay: Antibaterial activity against Erysipelothrix insidiosa assessed as lowest dose required to total inhibition of bacterial growth).
Format: functional

Structure (SMILES) | GI [µg/mL]
COc1ccc(OCCC(Cn2ccnc2)c2ccc(Cl)cc2Cl)cc1.O=[N+]([O-])O (stereo unspecified) | <1
Clc1ccc(C(COc2ccc(Br)cc2)Cn2ccnc2)c(Cl)c1.O=[N+]([O-])O (stereo unspecified) | <1
Clc1ccc(C(COc2ccc(Cl)cc2Cl)Cn2ccnc2)cc1.O=[N+]([O-])O (stereo unspecified) | 1
Fc1ccc(OCCCC(Cn2ccnc2)c2ccc(Cl)cc2Cl)cc1.O=C(O)C(=O)O (stereo unspecified) | 1

These molecules were tested on Staphylococcus haemolyticus (assay: Antibaterial activity against Staphylococcus haemolyticus assessed as lowest dose required to total inhibition of bacterial growth).
Format: functional

Structure (SMILES) | GI [µg/mL]
COc1ccc(OCCC(Cn2ccnc2)c2ccc(Cl)cc2Cl)cc1.O=[N+]([O-])O (stereo unspecified) | 10
Clc1ccc(C(COc2ccc(Br)cc2)Cn2ccnc2)c(Cl)c1.O=[N+]([O-])O (stereo unspecified) | 10
Clc1ccc(C(COc2ccc(Cl)cc2Cl)Cn2ccnc2)cc1.O=[N+]([O-])O (stereo unspecified) | 10
Fc1ccc(OCCCC(Cn2ccnc2)c2ccc(Cl)cc2Cl)cc1.O=C(O)C(=O)O (stereo unspecified) | 10

Each molecule was assayed on Streptococcus pyogenes (assay: Antibaterial activity against Streptococcus pyogenes assessed as lowest dose required to total inhibition of bacterial growth).
Format: functional

Structure (SMILES) | GI [µg/mL]
COc1ccc(OCCC(Cn2ccnc2)c2ccc(Cl)cc2Cl)cc1.O=[N+]([O-])O (stereo unspecified) | <1
Clc1ccc(C(COc2ccc(Br)cc2)Cn2ccnc2)c(Cl)c1.O=[N+]([O-])O (stereo unspecified) | <1
Clc1ccc(C(COc2ccc(Cl)cc2Cl)Cn2ccnc2)cc1.O=[N+]([O-])O (stereo unspecified) | <1
Fc1ccc(OCCCC(Cn2ccnc2)c2ccc(Cl)cc2Cl)cc1.O=C(O)C(=O)O (stereo unspecified) | 1

Reference: ChEMBL document CHEMBL3272010, “Antimycotic imidazoles. 3. Synthesis and antimycotic properties of 1-[2-(aryloxyalkyl)-2-phenylethyl]-1H-imidazoles” (1977)
